Source: ChEMBL document CHEMBL1201862, “PubChem BioAssay data set” (2004)
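Briefly, cells in 96-well plates were exposed to five compound concentrations for 48 h, and endpoints were estimated by linear interpolation. GI50 = concentration required for 50% inhibition of growth.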 Calls of active or inactive are those of the source. No stated cut-off is given here; in the data, active = GI50 up to about 1.1 µM and inactive = higher.

Key:
Test in all cases: NCI anticancer screen, dose series, 48 h
SK-MEL-28 = system: SK-MEL-28
OVCAR-5 = system: OVCAR-5
OVCAR-8 = system: OVCAR-8
SF-295 = system: SF-295
NCI-H226 = system: NCI-H226
SNB-19 = system: SNB-19
RPMI-8226 = system: RPMI-8226
KM12 = system: KM12
UACC-257 = system: UACC-257
CCRF-CEM = system: CCRF-CEM
COLO 205 = system: COLO 205
HCC 2998 = system: HCC 2998
A549 = system: A549
SK-OV-3 = system: SK-OV-3
NCI-H23 = system: NCI-H23
HT-29 = system: HT-29
OVCAR-4 = system: OVCAR-4
UO-31 = system: UO-31
SN12C = system: SN12C
HCT-15 = system: HCT-15

| Compound | GI50 (SK-MEL-28) | GI50 (OVCAR-5) | GI50 (OVCAR-8) | GI50 (SF-295) | GI50 (NCI-H226) | GI50 (SNB-19) | GI50 (RPMI-8226) | GI50 (KM12) | GI50 (UACC-257) | GI50 (CCRF-CEM) | GI50 (COLO 205) | GI50 (HCC 2998) | GI50 (A549) | GI50 (SK-OV-3) | GI50 (NCI-H23) | GI50 (HT-29) | GI50 (OVCAR-4) | GI50 (UO-31) | GI50 (SN12C) | GI50 (HCT-15) |
| --- | --- | --- | --- | --- | --- | --- | --- | --- | --- | --- | --- | --- | --- | --- | --- | --- | --- | --- | --- | --- |
| O=C1CC(=O)N(c2ccccc2)N1/C(=C/c1ccccc1)c1ccccc1 | 12.3 µM (inactive) | 29.2 µM (inactive) | 19.8 µM (inactive) | 17.3 µM (inactive) | 21.9 µM (inactive) | 19.6 µM (inactive) | 10.2 µM (inactive) | 25.6 µM (inactive) | 24.8 µM (inactive) | 0.336 µM (active) | 19.8 µM (inactive) | 20.1 µM (inactive) | 26.1 µM (inactive) | 25.6 µM (inactive) | 23.2 µM (inactive) | 20 µM (inactive) | 20.5 µM (inactive) | 15.7 µM (inactive) | 20.5 µM (inactive) |  |
| NC(=O)NN=C(CS)CS | 30.6 µM (inactive) | 24.1 µM (inactive) | 27.5 µM (inactive) | 23.7 µM (inactive) |  | 23.1 µM (inactive) | 46.1 µM (inactive) | 33.2 µM (inactive) | 19.5 µM (inactive) | 36.9 µM (inactive) | 23.1 µM (inactive) | 31 µM (inactive) | 22 µM (inactive) | 89.3 µM (inactive) | 22.7 µM (inactive) | 20.7 µM (inactive) | 25.4 µM (inactive) | 18.8 µM (inactive) | 24.2 µM (inactive) | 22.8 µM |
| O1C2C1C1OC1C1OC1C1OC21 (configuration not stated) | > 100 µM (inactive) | > 100 µM (inactive) | > 100 µM (inactive) | > 100 µM (inactive) | > 100 µM (inactive) | > 100 µM (inactive) |  | > 100 µM (inactive) | > 100 µM (inactive) |  | > 100 µM (inactive) | > 100 µM (inactive) | > 100 µM (inactive) | > 100 µM (inactive) | > 100 µM (inactive) | > 100 µM (inactive) | > 100 µM (inactive) | > 100 µM (inactive) | > 100 µM (inactive) | > 100 µM |
| CCOC(=O)NC(=O)c1cn(CCNCCO)c(=O)[nH]c1=O |  | > 100 µM (inactive) | > 100 µM (inactive) | > 100 µM (inactive) | > 100 µM (inactive) | 9.23 µM (inactive) | > 100 µM (inactive) | > 100 µM (inactive) |  | > 100 µM (inactive) | > 100 µM (inactive) |  | > 100 µM (inactive) | > 100 µM (inactive) | > 100 µM (inactive) | > 100 µM (inactive) | > 100 µM (inactive) |  | > 100 µM (inactive) | > 100 µM |
